# Test results: patent publication US11028064B2, “Tricyclic heterocyclic derivatives and uses thereof” (AUCKLAND UNISERVICES LIMITED, priority 2016, dated 2021)
# Molecular target: CSF-1R (FMS) (Homo sapiens (Human), UniProt P07333)
# Test: SelectScreen Z'-LYTE kinase assay, Assay 336 for CSF-1R (FMS)
# Type: biochemical
# Details: Z'-LYTE activity assay, 500 μM ATP (Km app); read-out: CSF-1R Enzyme IC50
# Chain of CSF-1R (FMS) (P07333 20-972): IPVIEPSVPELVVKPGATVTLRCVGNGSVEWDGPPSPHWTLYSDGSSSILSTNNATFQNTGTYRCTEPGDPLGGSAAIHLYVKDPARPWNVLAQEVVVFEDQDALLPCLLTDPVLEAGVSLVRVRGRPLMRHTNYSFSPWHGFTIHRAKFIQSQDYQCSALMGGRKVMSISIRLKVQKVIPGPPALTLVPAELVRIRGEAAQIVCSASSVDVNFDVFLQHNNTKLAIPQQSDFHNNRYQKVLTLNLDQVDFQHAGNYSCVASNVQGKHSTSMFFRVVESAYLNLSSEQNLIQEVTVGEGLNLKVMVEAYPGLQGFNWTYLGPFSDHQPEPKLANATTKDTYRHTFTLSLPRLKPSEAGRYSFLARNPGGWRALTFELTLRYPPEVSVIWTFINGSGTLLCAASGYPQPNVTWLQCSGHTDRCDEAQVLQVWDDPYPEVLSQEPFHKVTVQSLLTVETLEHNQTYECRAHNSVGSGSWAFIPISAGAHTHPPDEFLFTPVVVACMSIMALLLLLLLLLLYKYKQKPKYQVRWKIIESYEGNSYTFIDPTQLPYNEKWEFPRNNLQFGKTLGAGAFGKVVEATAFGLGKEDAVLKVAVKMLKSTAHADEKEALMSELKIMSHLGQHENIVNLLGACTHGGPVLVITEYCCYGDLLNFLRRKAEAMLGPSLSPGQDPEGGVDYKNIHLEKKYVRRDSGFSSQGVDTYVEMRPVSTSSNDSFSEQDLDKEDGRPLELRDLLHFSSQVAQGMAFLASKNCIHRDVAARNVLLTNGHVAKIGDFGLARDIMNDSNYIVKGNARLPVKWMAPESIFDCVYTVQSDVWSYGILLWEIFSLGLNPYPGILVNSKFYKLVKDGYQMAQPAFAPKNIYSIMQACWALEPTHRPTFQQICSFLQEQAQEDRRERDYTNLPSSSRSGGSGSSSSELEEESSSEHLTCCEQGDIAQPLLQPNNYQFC
row,Compound,IC50
1,"Cc1cc(OCCN(C)C)c2sc3cc(Oc4ccccc4)ccc3c(=O)c2c1 [Example 48, 4-(2-(Dimethylamino)ethoxy)-2-methyl-6-phenoxy-9H-thioxanthen-9-one]",100 to 1000 nM
2,"COc1ccc(CCc2ccc(Oc3ccc4c(=O)c5cc(C)cc(OCCN(C)C)c5oc4c3)cn2)cc1 [Example 18, 4-(2-(Dimethylamino)ethoxy)-6-((6-(4-methoxyphenethyl)pyridin-3-yl)oxy)-2-methyl-9H-xanthen-9-one]",< 100 nM
3,"CCN(CC)CCOc1cc(C)cc2c(=O)c3ccc(Oc4ccc(CCC(=O)NC5CCCC5)nc4)cc3oc12 [Example 55, N-Cyclopentyl-3-(5-((5-(2-(diethylamino)ethoxy)-7-methyl-9-oxo-9H-xanthen-3-yl)oxy)pyridin-2-yl)propanamide]",< 100 nM
4,"CN(C)CCOc1ccc2c(=O)c3ccc(Oc4ccc(CCC(=O)NC5CCCC5)nc4)cc3oc2c1 [Example 47, N-Cyclopentyl-3-(5-((6-(2-(dimethylamino)ethoxy)-9-oxo-9H-xanthen-3-yl)oxy)pyridine-2-yl)propanamide]",< 100 nM
5,"Cc1cc(OCCN(C(C)C)C(C)C)c2oc3cc(Oc4ccc(CCC(=O)NC5CCCC5)nc4)ccc3c(=O)c2c1 [Example 57, N-Cyclopentyl-3-[5-({5-[2-(diisopropylamino)ethoxy]-7-methyl-9-oxo-9H-xanthen-3-yl}oxy)-2-pyridinyl]propanamide]",< 100 nM
6,"CN(C)CCOc1cc(Cl)cc2c(=O)c3ccc(Oc4ccccc4)cc3oc12 [Example 39, 2-Chloro-4-[2-(dimethylamino)ethoxy]-6-phenoxy-9H-xanthen-9-one]",1000 to 10000 nM
7,"Cc1cc(OCCN)c2oc3cc(Oc4ccc(CCC(=O)NC5CCCC5)nc4)ccc3c(=O)c2c1 [Example 28, 3-(5-((5-(2-Aminoethoxy)-7-methyl-9-oxo-9H-xanthen-3-yl)oxy)pyridin-2-yl)-N-cyclopentylpropanamide]",< 100 nM
8,"Cc1cc(OCCN(C)C)c2oc3cc(Oc4ccc(CCC(=O)N5CCN(C)CC5)nc4)ccc3c(=O)c2c1 [Example 54, 4-(2-(Dimethylamino)ethoxy)-2-methyl-6-((6-(3-(4-methylpiperazin-1-yl)-3-oxopropyl)pyridin-3-yl)oxy)-9H-xanthen-9-one]",< 100 nM
9,"Cc1cc(OCCN(C)C)c2oc3cc(Oc4ccc(CCC(=O)NC5CCCC5)nc4)ccc3c(=O)c2c1 [Example 22, N-Cyclopentyl-3-(5-((5-(2-(dimethylamino)ethoxy)-7-methyl-9-oxo-9H-xanthen-3-yl)-oxy)pyridin-2-yl)propanamide]",< 100 nM
10,"COc1ccc(COc2ccc(Oc3ccc4c(=O)c5cc(C)cc(OCCN(C)C)c5oc4c3)cn2)cn1 [Example 11, 4-(2-(Dimethylamino)ethoxy)-6-((6-((6-methoxypyridin-3-yl)methoxy)pyridin-3-yl)oxy)-2-methyl-9H-xanthen-9-one]",< 100 nM
11,"Cc1cc(OC2CCN(C)C2)c2oc3cc(Oc4ccc(CCC(=O)NC5CCCC5)nc4)ccc3c(=O)c2c1 (stereo not shown) [Example 70, N-Cyclopentyl-3-(5-((7-methyl-5-((1-methylpyrrolidin-3-yl)oxy)-9-oxo-9H-xanthen-3-yl)oxy)pyridin-2-yl)propanamide]",< 100 nM
12,"Cc1cc(OCCCN2C[C@@H](C)N(C)[C@@H](C)C2)c2oc3cc(Oc4ccc(CCC(=O)NC5CCCC5)nc4)ccc3c(=O)c2c1 [Example 68, N-Cyclopentyl-3-(5-((7-methyl-9-oxo-5-(3-((3S,5R)-3,4,5-trimethylpiperazin-1-yl)propoxy)-9H-xanthen-3-yl)oxy)pyridin-2-yl)propanamide]",< 100 nM
13,"Cc1cc(OCCCN2[C@H](C)CCC[C@@H]2C)c2oc3cc(Oc4ccc(CCC(=O)NC5CCCC5)nc4)ccc3c(=O)c2c1 [Example 64, N-Cyclopentyl-3-(5-((5-(3-((2R,6S)-2,6-dimethylpiperidin-1-yl)propoxy)-7-methyl-9-oxo-9H-xanthen-3-yl)oxy)pyridin-2-yl)propanamide]",< 100 nM
14,"Cc1cc(OCCCN2CCOCC2)c2oc3cc(Oc4ccc(CCC(=O)NC5CCCC5)nc4)ccc3c(=O)c2c1 [Example 69, N-Cyclopentyl-3-[5-({7-methyl-5-[3-(4-morpholinyl)propoxy]-9-oxo-9H-xanthen-3-yl}oxy)-2-pyridinyl]propanamide]",< 100 nM
15,"Cc1cc(OCCN2C[C@@H](C)N[C@@H](C)C2)c2oc3cc(Oc4ccc(CCC(=O)NC5CCCC5)nc4)ccc3c(=O)c2c1 [Example 61, N-Cyclopentyl-3-(5-((5-(2-((3S,5R)-3,5-dimethylpiperazin-1-yl)ethoxy)-7-methyl-9-oxo-9H-xanthen-3-yl)oxy)pyridin-2-yl)propanamide]",< 100 nM
16,"Cc1cc(OCC2CCCCN2C)c2oc3cc(Oc4ccc(CCC(=O)NC5CCCC5)nc4)ccc3c(=O)c2c1 (stereo not shown) [Example 74, N-Cyclopentyl-3-(5-((7-methyl-5-((1-methylpiperidin-2-yl)methoxy)-9-oxo-9H-xanthen-3-yl)oxy)pyridin-2-yl)propanamide]",< 100 nM
17,"Cc1cc(OC2CCCN(C)C2)c2oc3cc(Oc4ccc(CCC(=O)NC5CCCC5)nc4)ccc3c(=O)c2c1 (stereo not shown) [Example 60, N-Cyclopentyl-3-(5-((7-methyl-5-((1-methylpiperidin-3-yl)oxy)-9-oxo-9H-xanthen-3-yl)oxy)pyridin-2-yl)propanamide]",< 100 nM

row,Compound,IC50
1,"Cc1cc(OC[C@H]2CCCN2C)c2oc3cc(Oc4ccc(CCC(=O)NC5CCCC5)nc4)ccc3c(=O)c2c1 [Example 72, (R)—N-Cyclopentyl-3-(5-((7-methyl-5-((1-methylpyrrolidin-2-yl)methoxy)-9-oxo-9H-xanthen-3-yl)oxy)pyridin-2-yl)propanamide]",< 100 nM
2,"Cc1cc(OCCN(C)C)c2sc3cc(Oc4cccc(C(=O)Nc5ccccc5)c4)ccc3c(=O)c2c1 [Example 49, 3-((5-(2-(Dimethylamino)ethoxy)-7-methyl-9-oxo-9H-thioxanthen-3-yl)oxy)-N-phenylbenzamide]",< 100 nM
3,"Cc1cc(OCCC2CCCN2C)c2oc3cc(Oc4ccc(CCC(=O)NC5CCCC5)nc4)ccc3c(=O)c2c1 (stereo not shown) [Example 75, N-Cyclopentyl-3-(5-((7-methyl-5-(2-(1-methylpyrrolidin-2-yl)ethoxy)-9-oxo-9H-xanthen-3-yl)oxy)pyridin-2-yl)propanamide]",< 100 nM
4,"CCN1CCN(CCCOc2cc(C)cc3c(=O)c4ccc(Oc5ccc(CCC(=O)NC6CCCC6)nc5)cc4oc23)CC1 [Example 65, N-Cyclopentyl-3-(5-((5-(3-(4-ethylpiperazin-1-yl)propoxy)-7-methyl-9-oxo-9H-xanthen-3-yl)oxy)pyridin-2-yl)propanamide]",< 100 nM
5,"Cc1cc(OCCN(C)C)c2oc3cc(Oc4ccc(OCc5ccc(C(F)(F)F)nc5)nc4)ccc3c(=O)c2c1 [Example 13, 4-(2-(Dimethylamino)ethoxy)-2-methyl-6-((6-((6-(trifluoromethyl)pyridin-3-yl)meth-oxy)pyridin-3-yl)oxy)-9H-xanthen-9-one]",< 100 nM
6,"COc1ccc(COc2ncc(Oc3ccc4c(=O)c5cc(C)cc(OCCN(C)C)c5oc4c3)cc2OC)cc1 [Example 12, 4-(2-(Dimethylamino)ethoxy)-6-((5-methoxy-6-((4-methoxybenzyl)oxy)pyridin-3-yl)oxy)-2-methyl-9H-xanthen-9-one]",< 100 nM
7,"COc1ccc(CCc2ccc(Oc3ccc4c(=O)c5cc(Cl)cc(OCCN(C)C)c5oc4c3)cn2)cc1 [Example 41, 2-Chloro-4-[2-(dimethylamino)ethoxy]-6-({6-[2-(4-methoxyphenyl)ethyl]-3-pyridinyl}oxy)-9H-xanthen-9-one]",100 to 1000 nM
8,"CN(C)CCOc1ccc2oc3cc(Oc4ccc(CCC(=O)NC5CCCC5)nc4)ccc3c(=O)c2c1 [Example 44, N-Cyclopentyl-3-(5-((7-(2-(dimethylamino)ethoxy)-9-oxo-9H-xanthen-3-yl)oxy)-pyridin-2-yl)propanamide]",< 100 nM
9,"CN(C)CCOc1cc(Cl)cc2c(=O)c3ccc(Oc4cccc(C(=O)Nc5ccccc5)c4)cc3oc12 [Example 40, 3-({7-Chloro-5-[2-(dimethylamino)ethoxy]-9-oxo-9H-xanthen-3-yl}oxy)-N-phenylbenzamide]",< 100 nM
10,"COc1cc(OCCN(C)C)cc2c(=O)c3ccc(Oc4ccc(CCC(=O)NC5CCCC5)nc4)cc3oc12 [Example 46, N-Cyclopentyl-3-(5-((7-(2-(dimethylamino)ethoxy)-5-methoxy-9-oxo-9H-xanthen-3-yl)oxy)pyridin-2-yl)propanamide]",< 100 nM
11,"Cc1cc(OCC2CCCN(C)C2)c2oc3cc(Oc4ccc(CCC(=O)NC5CCCC5)nc4)ccc3c(=O)c2c1 (stereo not shown) [Example 76, N-Cyclopentyl-3-(5-((7-methyl-5-((1-methylpiperidin-3-yl)methoxy)-9-oxo-9H-xanthen-3-yl)oxy)pyridin-2-yl)propanamide]",< 100 nM
12,"Cc1cc(OCCN2CCOCC2)c2oc3cc(Oc4ccc(CCC(=O)NC5CCCC5)nc4)ccc3c(=O)c2c1 [Example 56, N-Cyclopentyl-3-[5-({7-methyl-5-[2-(4-morpholinyl)ethoxy]-9-oxo-9H-xanthen-3-yl}oxy)-2-pyridinyl]propanamide]",< 100 nM
13,COc1ccc(COc2ccc(Oc3ccc4c(=O)c5cc(C)cc(OCCN(C)C)c5oc4c3)cc2OC)cc1 [Example 7],< 100 nM
14,"Cc1cc(OCC2CCN(C)CC2)c2oc3cc(Oc4ccccc4)ccc3c(=O)c2c1 [Example 35, 2-Methyl-4-((1-methylpiperidin-4-yl)methoxy)-6-phenoxy-9H-xanthen-9-one]",100 to 1000 nM
15,"Cc1cc(OCCN(C)C)c2oc3cc(Oc4ccc(CCC(=O)N5CCOCC5)nc4)ccc3c(=O)c2c1 [Example 24, 4-(2-(Dimethylamino)ethoxy)-2-methyl-6-((6-(3-morpholino-3-oxopropyl)pyridin-3-yl)oxy)-9H-xanthen-9-one]",< 100 nM
16,"COc1ccc(COc2ccc(Oc3ccc4c(=O)c5cc(C)cc(OCCN(C)C)c5oc4c3)cn2)cc1 [Example 10, 4-(2-(Dimethylamino)ethoxy)-6-((6-((4-methoxybenzyl)oxy)pyridin-3-yl)oxy)-2-methyl-9H-xanthen-9-one]",< 100 nM
17,"COc1ccc(CCc2ccc(Oc3ccc4c(=O)c5cc(C)cc(OCCN(C)C)c5sc4c3)cn2)cc1 [Example 50, 4-(2-(Dimethylamino)ethoxy)-6-((6-(4-methoxyphenethyl)pyridin-3-yl)oxy)-2-methyl-9H-thioxanthen-9-one]",< 100 nM
